We go through 15 compounds from US7842809B2, “Pyrazolopyridines and salts thereof, a pharmaceutical composition comprising said compounds, a method of preparing same and use of same” (Bayer Schering Pharma AG, priority 2005, dated 2010).

SMILES strings stand for the structures.

For experiment [1], the target named is T1, VEGFR-2 (Homo sapiens, UniProt P35968).
T1 construct: made in house; host or cells: E. coli
Description: VEGFR-2 kinase assay (Biological Experiment 5, HTRF). Type of experiment: biochemical. To be noted: mean IC50; recombinant VEGFR-2, 10 μM ATP; read-out: Inhibition of VEGFR-2 kinase. As to the method: Biological Experiment 5: VEGFR-2 Kinase Assay
Recombinant VEGFR-2 protein was expressed in E. coli and purified. As kinase substrate, a biotinylated peptide with the amino acid sequence biotin-DFGLARDMYDKEYYSVG was used, which was obtained from Biosynthan.
VEGFR-2 [Test volume 5 μL] was incubated for 45 min at 22° C. in the presence of different concentrations of test substances (0 μM, including 10 datapoints within the range 0.001-20 μM in duplicate) in assay buffer [50 mM HEPES pH7.0, 25.0 mM MgCl2, 5.0 mM MnCl2, 0.1 mM Na ortho-Vanadate, 1.0 mM Dithiothreitol, 0.001% NP40, 10 μM ATP, 1.2 μM peptide substrate, 1.0% DMSO]. The reaction was stopped by addition of 5 μL of an EDTA/detection-solution [50 mM HEPES pH7.5, 125 mM EDTA, 0.2% BSA, 0.1 μM Streptavidin-XLent (obtained from CisBio), 1 nM PT66-Eu (obtained from PerkinElmer)]. The measurement of the fluorescence emission at 620 nm and 665 nm through excitation with light of wavelength 350 nm was accomplished in a Rubystar HTRF-measurement instrument obtained from BMG Labsystems.
The data (ratio of emission at 665 nm to emission at 620 nm multiplied by 10000) was normalised to 0% inhibition (enzyme reaction without inhibitor) and 100% inhibition (all assay components without enzyme). The determination of the IC50 values was accomplished with a 4-parameter fit using in-house software.
(TR-FRET usually uses a lanthanide donor and a delayed reading to cut background.)

In experiment [2] the target is T2, Tie2 (Homo sapiens, UniProt Q02763). Description: Tie-2 ELISA: angiopoietin-2 stimulated Tie2 autophosphorylation in Tie2-transfected CHO cells (Biological Experiment 1). On the set-up: expressed in transfected cells; host or cells: CHO (DHFR-deficient), stably transfected. Type of experiment: cell-based. The note with it: mean IC50; CHO Tie2/DHFR cells stimulated with Ang2-Fc. As to the method:
Biological Experiment 1: ELISA-Assay
Herein CHO cell-cultures, which are stably transfected by known techniques with Tie2 using DHFR deficiency as selection marker, are stimulated by angiopoietin-2. The specific autophosphorylation of Tie2 receptors is quantified with a sandwich-ELISA using anti-Tie2 antibodies for catch and anti-phosphotyrosine antibodies coupled to HRP as detection.
• 1 cap Vanadate (1 mL>40 mg/mL; working solution 2 mM) • ad 50 mL with Duschl buffer • pH 7.6 Anti-TIE-II antibody 1:425 in Coating Buffer pH 9.6 Stock solution: 1.275 mg/ml>working.: 3 μg/mL PBST: 2 bottles PBS(10×)+10 ml Tween, fill up with deionised water RotiBlock 1:10 in deionised water Anti-Phosphotyrosine HRP-Conjugated 1:10000 in 3% TopBlock • 3% TopBlock in PBST BM Chemiluminescence ELISA Substrate (POD) • solution B 1:100 solution A SF9 cell culture medium Ang2-Fc in SF9 cell culture medium Cell Experiment: Dispense 5×10^4 cells/well/98 μl in 96 well tissue culture plate Incubate at 37° C./5% CO2 After 24 h add compounds according to desired concentrations Add also to control and stimulated values without compounds 2 μl DMSO And mix for a few min at room temperature Add 100 μAng2-Fc to all wells except control, which receives insect medium Incubate 20 min at 37° C. Wash 3× with PBS++ Add 100 μl Lysis buffer/well and shake a couple of min at room temperature Store lysates at […] before utilizing for the ELISA Performance of Sandwich-ELISA Coat 96 well FluoroNunc Plate MaxiSorp Surface C with anti-Tie2 Mab 1:425 in Coating buffer pH 9.6; 100 μL/well overnight at 4° C. Wash 2× with PBST Block plates with 250 μL/well RotiBlock 1:10 in deionised water Incubate for 2 h at room temperature or overnight at 4° C. shaking Wash 2× in PBST Add thawed lysates to wells and incubate overnight shaking at 4° C. Wash 2× with PBST Add 100 μL/well anti-Phosphotyrosine HRP-Conjugated 1:10000 in 3% TopBlock (3% TopBlock in PBST) and incubate overnight under shaking Wash 6× with PBST Add 100 μL/well BM Chemiluminescence ELISA Substrate (POD solutions 1 and 2 (1:100) Determine luminescence with the LumiCount. Biological Experiment 2: Tie-2-Kinase HTRF-Assay
Background: An ELISA detects its analyte on a solid surface through an enzyme-linked reagent.
Target sequence in this assay (Q02763 23-1124): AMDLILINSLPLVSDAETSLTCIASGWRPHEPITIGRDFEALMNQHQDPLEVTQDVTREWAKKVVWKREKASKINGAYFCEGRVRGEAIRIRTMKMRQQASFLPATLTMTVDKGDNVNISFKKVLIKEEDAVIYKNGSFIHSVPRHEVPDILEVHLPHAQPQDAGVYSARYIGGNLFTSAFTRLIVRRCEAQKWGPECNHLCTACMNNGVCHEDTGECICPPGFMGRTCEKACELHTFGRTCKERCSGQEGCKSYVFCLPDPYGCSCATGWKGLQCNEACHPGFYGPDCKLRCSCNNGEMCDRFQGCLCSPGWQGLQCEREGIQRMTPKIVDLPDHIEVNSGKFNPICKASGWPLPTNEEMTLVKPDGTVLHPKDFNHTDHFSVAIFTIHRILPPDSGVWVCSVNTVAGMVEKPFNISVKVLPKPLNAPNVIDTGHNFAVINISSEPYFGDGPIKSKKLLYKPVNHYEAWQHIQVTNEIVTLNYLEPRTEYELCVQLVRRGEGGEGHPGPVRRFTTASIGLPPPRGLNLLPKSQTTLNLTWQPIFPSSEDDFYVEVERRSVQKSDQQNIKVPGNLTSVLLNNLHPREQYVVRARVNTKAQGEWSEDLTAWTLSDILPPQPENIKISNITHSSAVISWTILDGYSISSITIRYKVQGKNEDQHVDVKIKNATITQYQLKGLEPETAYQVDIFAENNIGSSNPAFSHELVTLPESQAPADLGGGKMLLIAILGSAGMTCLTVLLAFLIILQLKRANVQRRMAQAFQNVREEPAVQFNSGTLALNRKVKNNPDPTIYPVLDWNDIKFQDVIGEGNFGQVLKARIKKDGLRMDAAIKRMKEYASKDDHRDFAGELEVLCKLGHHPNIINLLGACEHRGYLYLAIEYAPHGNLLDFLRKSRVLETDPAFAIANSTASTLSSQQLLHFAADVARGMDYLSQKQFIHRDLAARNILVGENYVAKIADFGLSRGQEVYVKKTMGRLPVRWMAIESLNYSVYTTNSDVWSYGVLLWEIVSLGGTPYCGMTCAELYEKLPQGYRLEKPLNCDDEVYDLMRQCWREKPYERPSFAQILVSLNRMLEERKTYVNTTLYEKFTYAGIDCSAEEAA

Experiment [3] addresses T2, Tie2. Description: Tie-2 kinase assay without preactivation of kinase (Biological Experiment 3, HTRF). Type of experiment: biochemical. Further details: fusion protein of GST and the intracellular domains of Tie-2; GST; made in house; host or cells: insect cells (Hi-5). The note with it: mean IC50; GST-Tie-2 without preactivation, 10 μM ATP; read-out: Inhibition of Tie-2 kinase (Biological Experiment 3). The source says: Biological Experiment 3: Tie-2 Kinase Assay without Preactivation of Kinase
A recombinant fusion protein of GST and the intracellular domains of Tie-2, expressed in insect cells (Hi-5) and purified by Glutathion-Sepharose affinity chromatography was used as kinase. Alternatively, commercially available GST-Tie2-fusion protein (Upstate Biotechnology, Dundee, Scotland) can be used. As substrate for the kinase reaction the biotinylated peptide biotin-Ahx-EPKDDAYPLYSDFG (C-terminus in amide form) was used which can be purchased e.g. from the company Biosynthan GmbH (Berlin-Buch, Germany). Tie-2 (3.5 ng/measurement point) was incubated for 60 min at 22° C. in the presence of 10 μM adenosine-tri-phosphate (ATP) and 1 μM substrate peptide (biotin-Ahx-EPKDDAYPLYSDFG-NH2) with different concentrations of test compounds (0 μM and concentrations in the range 0.001-20 μM) in 5 μl assay buffer [50 mM Hepes/NaOH pH 7, 10 mM MgCl2, 0.5 mM MnCl2, 1.0 mM dithiothreitol, 0.01% NP40, protease inhibitor mixture (“Complete w/o EDTA” from Roche, 1 tablet per 2.5 ml), 1% (v/v) dimethylsulfoxide]. To stabilize the enzyme, bovine serum albumin (0.1%, w/v) can be added. The reaction was stopped by the addition of 5 μl of an aqueous buffer (25 mM Hepes/NaOH pH 7.5, 0.28% (w/v) bovine serum albumin) containing EDTA (90 mM) and the HTRF (Homogeneous Time Resolved Fluorescence) detection reagents streptavidine-XLent (0.2 μM, from C is Biointernational, Marcoule, France) and PT66-Eu-Chelate (0.3 ng/μl; a europium-chelate labelled anti-phospho-tyrosine antibody from Perkin Elmer).
The resulting mixture was incubated 1 h at 22° C. to allow the binding of the biotinylated phosphorylated peptide to the streptavidine-XLent and the PT66-Eu-Chelate. Subsequently the amount of phosphorylated substrate peptide was evaluated by measurement of the resonance energy transfer from the PT66-Eu-Chelate to the streptavidine-XLent. Therefore, the fluorescence emissions at 620 nm and 665 nm after excitation at 350 nm was measured in a HTRF reader, e.g. a Rubystar (BMG Labtechnologies, Offenburg, Germany) or a Viewlux (Perkin-Elmer). The ratio of the emissions at 665 nm and at […] was taken as the measure for the amount of phosphorylated substrate peptide. The data were normalised (enzyme reaction without inhibitor=0% inhibition, all other assay components but no enzyme=100% inhibition) and IC50 values were calculated by a 4 parameter fit using an inhouse software.
Target sequence in this assay (Q02763 770-1124 limits assumed): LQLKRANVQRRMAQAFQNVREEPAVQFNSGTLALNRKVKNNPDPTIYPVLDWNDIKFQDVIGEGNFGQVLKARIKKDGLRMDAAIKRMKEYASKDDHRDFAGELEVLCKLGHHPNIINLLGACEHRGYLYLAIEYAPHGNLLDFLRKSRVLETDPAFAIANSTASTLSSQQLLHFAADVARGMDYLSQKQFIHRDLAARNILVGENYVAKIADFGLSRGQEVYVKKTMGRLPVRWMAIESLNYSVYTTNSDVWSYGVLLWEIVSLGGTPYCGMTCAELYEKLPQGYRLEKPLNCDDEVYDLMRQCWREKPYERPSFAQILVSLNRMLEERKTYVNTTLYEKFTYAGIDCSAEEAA

T1 sequence (P35968 20-1356): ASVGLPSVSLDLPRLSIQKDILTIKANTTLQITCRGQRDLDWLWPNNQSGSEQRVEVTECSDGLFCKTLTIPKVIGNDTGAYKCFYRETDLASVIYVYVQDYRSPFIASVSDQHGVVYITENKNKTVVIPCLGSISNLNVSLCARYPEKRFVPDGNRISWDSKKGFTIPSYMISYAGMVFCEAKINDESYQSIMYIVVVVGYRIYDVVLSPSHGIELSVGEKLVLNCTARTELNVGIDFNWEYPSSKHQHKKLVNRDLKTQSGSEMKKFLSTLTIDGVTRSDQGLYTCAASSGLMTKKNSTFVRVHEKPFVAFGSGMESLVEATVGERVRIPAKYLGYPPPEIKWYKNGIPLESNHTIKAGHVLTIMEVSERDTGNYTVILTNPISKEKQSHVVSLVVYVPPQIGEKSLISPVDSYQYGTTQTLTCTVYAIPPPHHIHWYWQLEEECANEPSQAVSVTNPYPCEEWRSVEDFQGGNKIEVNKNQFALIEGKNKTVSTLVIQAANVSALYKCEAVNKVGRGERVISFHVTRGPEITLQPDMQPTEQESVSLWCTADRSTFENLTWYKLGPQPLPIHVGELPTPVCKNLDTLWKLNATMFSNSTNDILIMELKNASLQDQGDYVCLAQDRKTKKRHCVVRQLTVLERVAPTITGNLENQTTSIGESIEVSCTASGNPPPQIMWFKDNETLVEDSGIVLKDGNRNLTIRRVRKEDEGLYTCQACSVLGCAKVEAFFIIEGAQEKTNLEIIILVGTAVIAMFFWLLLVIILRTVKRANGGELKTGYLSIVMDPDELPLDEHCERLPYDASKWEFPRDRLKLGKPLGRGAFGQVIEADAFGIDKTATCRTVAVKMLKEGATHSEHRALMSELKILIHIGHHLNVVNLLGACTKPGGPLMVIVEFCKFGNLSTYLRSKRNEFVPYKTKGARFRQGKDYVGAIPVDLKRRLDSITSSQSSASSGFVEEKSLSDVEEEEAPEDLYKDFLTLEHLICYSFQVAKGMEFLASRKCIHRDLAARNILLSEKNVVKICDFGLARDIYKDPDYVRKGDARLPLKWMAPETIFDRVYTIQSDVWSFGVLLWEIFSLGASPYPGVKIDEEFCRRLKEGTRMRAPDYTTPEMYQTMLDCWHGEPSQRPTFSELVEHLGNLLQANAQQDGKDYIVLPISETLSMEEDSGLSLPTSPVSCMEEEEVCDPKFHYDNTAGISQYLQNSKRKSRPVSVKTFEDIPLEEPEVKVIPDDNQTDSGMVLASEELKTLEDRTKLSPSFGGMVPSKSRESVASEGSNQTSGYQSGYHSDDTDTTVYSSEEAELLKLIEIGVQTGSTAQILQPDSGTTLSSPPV

For the compound `CC(C)(C)c1cc(-c2ccc(NC(=O)Nc3ccccc3)cc2)c2c(N)n[nH]c2n1` [Example 1, 1-[4-(3-amino-6-tert-butyl-1H-pyrazolo[3,4-b]pyridin-4-yl)-phenyl]-3-phenyl-urea], the IC50 is 500 to 2000 nM in experiment [1], 500 to 2000 nM in experiment [2] and no more than 500 nM in experiment [3].
Turning to `CC(C)(C)c1cc(-c2ccc(NS(=O)(=O)c3ccccc3)cc2)c2c(N)n[nH]c2n1` [Example 2, N-[4-(3-amino-6-tert-butyl-1H-pyrazolo[3,4-b]pyridin-4-yl)-phenyl]-benzenesulfonamide], the IC50 in experiment [2] and in experiment [3] was 500 to 2000 nM in each case.
Take `CC(C)(C)c1cc(-c2ccc(NC(=O)Nc3cccc(F)c3)cc2)c2c(N)n[nH]c2n1` [Example 3, 1-[4-(3-amino-6-tert-butyl-1H-pyrazolo[3,4-b]pyridin-4-yl)-phenyl]-3-(3-fluoro-phenyl)-urea]: the results for the IC50 in experiment [2] and in experiment [3] were no more than 500 nM and 500 to 2000 nM, respectively.
As to `Cc1cccc(NC(=O)Nc2ccc(-c3cc(C(C)(C)C)nc4[nH]nc(N)c34)cc2)c1` [Example 9, 1-[4-(3-amino-6-tert-butyl-1H-pyrazolo[3,4-b]pyridin-4-yl)-phenyl]-3-m-tolyl-urea], the results for the IC50 in experiment [1], in experiment [2] and in experiment [3] were 500 to 2000 nM, no more than 500 nM and no more than 500 nM, respectively.
`CC(C)(C)c1cc(-c2ccc(NC(=O)Nc3ccc(F)cc3)cc2)c2c(N)n[nH]c2n1` [Example 12, 1-[4-(3-amino-6-tert-butyl-1H-pyrazolo[3,4-b]pyridin-4-yl)-phenyl]-3-(4-fluoro-phenyl)-urea]: the IC50 in experiment [2] is no more than 500 nM; in experiment [3] it was 500 to 2000 nM.
As to `Nc1n[nH]c2nc(C3CC3)cc(-c3ccc(NC(=O)Nc4ccccc4)cc3)c12` [Example 14, 1-[4-(3-amino-6-cyclopropyl-1H-pyrazolo[3,4-b]pyridin-4-yl)-phenyl]-3-phenyl-urea], the IC50 in experiment [1] is no more than 500 nM; in experiment [2], no more than 500 nM; in experiment [3] it was 500 to 2000 nM.
`Nc1n[nH]c2nc(C3CC3)cc(-c3ccc(NC(=O)Nc4ccccc4F)cc3)c12` [Example 15, 1-[4-(3-amino-6-cyclopropyl-1H-pyrazolo[3,4-b]pyridin-4-yl)-phenyl]-3-(2-fluoro-phenyl)-urea]: the values for the IC50 in experiment [1], in experiment [2] and in experiment [3] were 500 to 2000 nM, no more than 500 nM and no more than 500 nM, respectively.
For the compound `CC(C)c1cc(-c2ccc(NC(=O)Nc3cccc(C(F)(F)F)c3)cc2)c2c(N)n[nH]c2n1` [Example 16, 1-[4-(3-amino-6-isopropyl-1H-pyrazolo[3,4-b]pyridin-4-yl)-phenyl]-3-(3-trifluoromethyl-phenyl)-urea], the IC50 in experiment [1], in experiment [2] and in experiment [3] was no more than 500 nM throughout.
Turning to `Cc1ccc(C(=O)Nc2ccc(-c3cc(C(C)(C)C)nc4[nH]nc(N)c34)cc2)cc1` [Example 17, N-[4-(3-amino-6-tert-butyl-1H-pyrazolo[3,4-b]pyridin-4-yl)-phenyl]-4-methyl-benzamide], the IC50 in experiment [1], in experiment [2] and in experiment [3] was 500 to 2000 nM throughout.
On to `CC(C)(C)c1cc(-c2ccc(NC(=O)Nc3cccc(C(F)(F)F)c3)cc2)c2c(N)n[nH]c2n1` [Example 27, 1-[4-(3-amino-6-tert-butyl-1H-pyrazolo-[3,4-b]pyridin-4-yl)-phenyl]-3-(3-trifluoro-methyl-phenyl)-urea], for which the IC50 in experiment [1], in experiment [2] and in experiment [3] was no more than 500 nM throughout.
With `Cc1ccc(F)c(NC(=O)Nc2ccc(-c3cc(C(C)(C)C)nc4[nH]nc(N)c34)cc2)c1` [Example 31, 1-[4-(3-amino-6-tert-butyl-1 H-pyrazolo[3,4-b]pyridin-4-yl)-phenyl]-3-(2-fluoro-5-methyl-phenyl)-urea], the IC50 in experiment [3] was no more than 500 nM.
Regarding `CC(C)(C)c1cc(-c2ccc(NC(=O)Nc3cc(C(F)(F)F)ccc3F)cc2)c2c(N)n[nH]c2n1` [Example 37, 1-[4-(3-amino-6-tert-butyl-1H-pyrazolo[3,4-b]pyridin-4-yl)-phenyl]-3-(2-fluoro-5-trifluoromethyl-phenyl)-urea], the IC50 in experiment [1], in experiment [2] and in experiment [3] was no more than 500 nM each time.
For the compound `CC(C)(C)c1cc(-c2ccc(NC(=O)Cc3ccccc3)cc2)c2c(N)n[nH]c2n1` [Example 47, N-[4-(3-amino-6-tert-butyl-1H-pyrazolo[3,4-b]pyridin-4-yl)-phenyl]-2-phenyl-acetamide], the IC50 in experiment [2] and in experiment [3] was 500 to 2000 nM each time.
For the compound `CC(C)(C)c1cc(-c2ccc(NC(=O)C3(c4ccccc4)CC3)cc2)c2c(N)n[nH]c2n1` [Example 49, 1-phenyl-cyclopropanecarboxylic acid [4-(3-amino-6-tert-butyl-1H-pyrazolo[3,4-b]pyridin-4-yl)-phenyl]-amide], the IC50 in experiment [2] and in experiment [3] was no more than 500 nM in each case.
As for `CC(C)(C)c1cc(-c2ccc(NC(=O)C(C)(C)c3ccccc3)cc2)c2c(N)n[nH]c2n1` [Example 51, N-[4-(3-amino-6-tert-butyl-1H-pyrazolo[3,4-b]pyridin-4-yl)-phenyl]-2-phenyl-isobutyramide], the IC50 was no more than 500 nM in experiment [2] and 500 to 2000 nM in experiment [3].
